Values joined by “and” are separate entries in the source; they are usually repeats but may differ in a detail not shown here. Equal values may be shown once. Where only a bound is given, the exact number is not on record here.

Type in all cases: cell-based
Test [1] deals with MDA-MB-231 triple negative breast cancer cells (NQO1 deficient). Put plainly: Mitochondrial ROS generation by MitoSox, flow cytometry. Here is the method:
Determination of ROS generation: To measure intracellular generation of ROS, cells were incubated with 5 μM DCF-DA (Sigma) for 20 min at 37° C. after drug exposure. To measure mitochondrial generated ROS, cells were incubated with 5 μM of MitoSox (Invitrogen) for 20 min at 37° C. After wash with PBS, cells were trypsinized and suspended in HBSS containing 1% BSA. The fluorescence intensity of DCF and MitoSox were analyzed using an Accuri C6 flow cytometer (BD Accuri Cytometers, Ann Arbor, Mich.).
A549 non-small cell lung cancer cells (high NQO1) and MDA-MB-231 triple negative breast cancer cells (NQO1 deficient) were treated as indicated in FIG. 6. Mitochondrial ROS generation was determined by MitoSox followed by flow cytometry, essentially as described above.
Mitochondrial ROS generation was determined by MitoSox followed by flow cytometry. Left-shift of peak indicates decrease of ROS and right-shift of peak indicates increase of ROS.
(In general: In flow cytometry, cells or beads pass a laser one at a time.)

In test [2] the test system is A549 cells. Put plainly: Mitochondria morphology by transmission electron microscopy. Conditions: A549, 6 μM, 16 h, electron microscopy (FIG. 4C). The procedure:
(§1) (4A) A549 cells were treated with XJB-OMe, 3-hydroxy-β-lapachone (14), or XJB-lapachone (18) at 6 μM for 16 h. The generation of ROS was determined by staining cells with MitoSox and DCFHDA. The fluorescence intensity was measured by flow cytometry. Data represents the mean±S.D. of triplicates. (4B) A549 cells were treated as described in A, and the oxygen consumption rate was determined by a Seahorse extracellular flux analyzer. […] (4C) A549 cells were treated as described in A, and mitochondria morphology was examined by electron microscopy. Representative images are shown. (4D) A549 cells were treated as described above. The expression of the autophagy marker LC3 was examined by western blot. β-actin was used as a loading control. Representative images are shown.
Microscopy: For vacuole imaging, A549 cells were plated in 12-well plate, treated with compounds and the phase contrast images were captured using a Nikon Eclipse TS100 inverted microscope. For transmission electron microscopy analysis, A549 cells cultured in 6-well plate were fixed with 2.5% glutaraldehyde (Sigma-Aldrich) in PBS for 1 h at room temperature, and post-fixed for 1 h at 4° C. in 1% OsO4 with 1% K3Fe(CN)6. After dehydration and embedding, ultrathin (70 nm) sections were cut and mounted onto copper grids. […]

The subject of test [3] is A549 non-small cell lung cancer cells. Put plainly: Colony forming capacity (crystal violet) 10 days after drug treatment. Here is the method:
Drug efficacy was determined by colony forming capacity using crystal violet 10 days after drug treatment.
A549 non-small cell lung cancer cells were treated with XJB-lapachone alone or combination with cisplatin or etoposide for 4 h at concentrations indicated in FIG. 10. Drug efficacy was determined by colony forming capacity 10 days after drug treatment.
A549 cells were treated with XJB-lapachone for 4 h. XJB-lapachone was then washed away before IR exposure (gamma-irradiation with a Shepherd Mark I Model 68 [^137Cs] irradiator) at 0, 1, 2, 4, and 6 Gy (grays). The number of colonies was counted 10 days after IR exposure (FIG. 11).

Test [4] concerns A549 lung cancer cells. Description: Cell growth/death assay (4 h exposure, wash-out, 3 days drug free). Conditions: A549, 10 μM for 4 h, washed, 3 days drug free media (FIG. 3C). Here is the method:
(§2) (3A) A549 non-small cell lung cancer cells were treated with XJB-OMe, 3-hydroxy-β-lapachone (14), or XJB-lapachone (18) at indicated concentrations for 24 h. Cell viability was determined by a CellTiter-Blue assay. Data represents the mean±SEM. (3B) PEO1 ovarian cancer cells, MDA-MB-231 breast cancer cells, and 983B melanoma cells were treated with XJB-lapachone (18) at indicated concentrations for 24 h. Cell viability was determined by a CellTiter-Blue assay. Data represents the mean±SEM. (3C) Equal numbers of A549 and IMR90 lung fibroblast cells were treated with 10 μM XJB-lapachone (18) for 4 h. XJB-lapachone was then washed away and cells were incubated in drug free media for 3 days. Cell viability was determined by a CellTiter-Blue assay. (3D) A549 cells were treated with XJB-OMe, 3-hydroxy-β-lapachone (14), or XJB-lapachone (18) at 6 μM concentrations for 20 h. […] Apoptotic and necrotic cell death were determined by Annexin V and PI staining. […]
Cell viability and apoptosis assays: Cell viability was determined using a CellTiter-Blue Cell Viability Assay (Promega, Madison, Wis.). The survival fractions were calculated after setting untreated control cells at 100%. An FITC Annexin V Apoptosis Detection Kit (BD PharMingen, San Diego, Calif.) was used to quantify apoptotic cells and necrotic cells, according to the manufacturer's instructions. […]

Test [5] relates to LC3. Put plainly: Western blot of autophagy marker LC3. Conditions: A549, western blot (FIG. 4D). The procedure: as §1
Western blot analysis: Western blot was performed. Primary antibody LC3 was obtained from Novus (Littleton, Colo.) and β-actin was purchased from Sigma-Aldrich (St. Louis, Mo.).
Background: A western blot detects proteins with antibodies after separation by electrophoresis.

The subject of test [6] is A549 cells. Description: Annexin V and PI staining (apoptotic and necrotic cell death). The following applies: A549, 6 μM, 20 h, compared to unconjugated 3-hydroxy-β-lapachone (FIG. 3E). The procedure: as §2
Cell viability and apoptosis assays: Cell viability was determined using a CellTiter-Blue Cell Viability Assay (Promega, Madison, Wis.). The survival fractions were calculated after setting untreated control cells at 100%. An FITC Annexin V Apoptosis Detection Kit (BD PharMingen, San Diego, Calif.) was used to quantify apoptotic cells and necrotic cells, according to the manufacturer's instructions.

Test [7] concerns A549 cells. Put plainly: Vacuole formation by phase contrast microscopy. The following applies: A549, 6 μM, 20 h, phase contrast microscopy (FIG. 3D). Here is the method: (3A) A549 non-small cell lung cancer cells were treated with XJB-OMe, 3-hydroxy-β-lapachone (14), or XJB-lapachone (18) at indicated concentrations for 24 h. Cell viability was determined by a CellTiter-Blue assay. Data represents the mean±SEM. (3B) PEO1 ovarian cancer cells, MDA-MB-231 breast cancer cells, and 983B melanoma cells were treated with XJB-lapachone (18) at indicated concentrations for 24 h. Cell viability was determined by a CellTiter-Blue assay. Data represents the mean±SEM. (3C) Equal numbers of A549 and IMR90 lung fibroblast cells were treated with 10 μM XJB-lapachone (18) for 4 h. XJB-lapachone was then washed away and cells were incubated in drug free media for 3 days. Cell viability was determined by a CellTiter-Blue assay. (3D) A549 cells were treated with XJB-OMe, 3-hydroxy-β-lapachone (14), or XJB-lapachone (18) at 6 μM concentrations for 20 h. The formation of vacuoles was examined by phase contrast microscopy. Representative images are shown. (3E) A549 cells were treated as described above. Apoptotic and necrotic cell death were determined by Annexin V and PI staining. Representative images are shown.
Microscopy: For vacuole imaging, A549 cells were plated in 12-well plate, treated with compounds and the phase contrast images were captured using a Nikon Eclipse TS100 inverted microscope. […]

For the compound `CC(C)C[C@@H](/C=C/[C@H](Cc1ccccc1)C(=O)N1CCC[C@H]1C(=O)N[C@H](C(=O)N[C@@H](CCCNC(=O)OCc1ccccc1)C(=O)NCCC(=O)OC1CC2=C(OC1(C)C)c1ccccc1C(=O)C2=O)C(C)C)NC(=O)OC(C)(C)C` (stereo partly drawn) [XJB-lapachone, 2,2-Dimethyl-5,6-dioxo-3,4,5,6-tetrahydro-2H-benzo[h]chromen-3-yl 3-((S)-2-((S)-2-((S)-1-((2S,5S,E)-2-benzyl-5-((tert-butoxycarbonyl)amino)-7-methyloct-3-enoyl)pyrrolidine-2-carboxamido)-3-methylbutanamido)-5-(((benzyloxy)carbonyl)amino)pentanamido) propanoate], in test [1] (MDA-MB-231 (NQO1 deficient) (FIG. 6)), the “mitochondrial ROS generation (MitoSox), dose and time dependence” value was “Induces Mitochondrial ROS Generation in a Dose and Time Dependent Manner”. Moreover, the “mitochondrial ROS levels at high concentration” value in test [1] (MDA-MB-231, 2 h, high concentration (FIG. 7)) was “Increases Mitochondrial ROS”. Also, the “mitochondrial ROS levels at low concentration” value in test [1] (MDA-MB-231, 2 h, low concentration (FIG. 7)) is “Reduces Mitochondrial ROS Levels”. In test [1] (as described in the examples), the “concentration at which ROS decreased” value was ≤ 1 µM; the “concentration that increases ROS production in the mitochondria” value was > 1.0 µM and > 2.0 µM. The mitochondria morphology result in test [2] is listed as “onion skin-like structures of mitochondria were observed”. Also, the “colony forming capacity in combination with cisplatin or etoposide” value in test [3] (A549, 4 h, alone or combination with cisplatin or etoposide, 10 days (FIG. 10)) is given as “enhances the effect of DNA-damaging anticancer agents”. The “treatment efficacy by colony forming capacity” value in test [3] (A549, 4 h treatment, colonies 10 days after (FIG. 5)) was “Higher Treatment Efficacy as Compared to Unconjugated Beta-Lapachone”. Moreover, the “number of colonies in combination with ionizing radiation” value in test [3] (A549, 4 h treatment, washed, IR 0-6 Gy, colonies counted 10 days after (FIG. 11)) is on record as “Synergistic Effect”. The “cell viability after four-hour exposure” value in test [4] is recorded as “significantly reduced the viability”. Also, the “increase in LC3-II immunoblot signal” value in test [5] is on record as “increase in an LC3-II immunoblot signal was observed”. Also, the “annexin V positive cells (apoptosis)” value in test [6] is “more annexin V positive cells were induced”. Moreover, the “vacuolization (formation of vacuoles)” value in test [7] is given as “extensive vacuolization”.

Values taken from US10968196B2, “Substituted β-lapachones for treating cancer” (University of Pittsburgh—Of the Commonwealth System of …, priority 2015, dated 2021).
